From patent US20170313669A1, “LACTONE COMPOUNDS AND METHODS OF MAKING AND USING SAME” (THE SCRIPPS RESEARCH INSTITUTE, priority 2015, published 2017)
Values belong to the compound of their own block, whether it stands above or below them.

Key:
ABHD16A [1] = molecular target: T1, ABHD16A (Homo sapiens, UniProt O95870); assay: ABPP-SILAC, COLO205 cells treated in situ; type: cell-based; parameters: All ABPP-SILAC experiments were performed using the human COLO205 colon cancer cell line; endogenous in cells; host or cells: COLO205; conditions: COLO 205, 4 h
T1 sequence (O95870 1-558): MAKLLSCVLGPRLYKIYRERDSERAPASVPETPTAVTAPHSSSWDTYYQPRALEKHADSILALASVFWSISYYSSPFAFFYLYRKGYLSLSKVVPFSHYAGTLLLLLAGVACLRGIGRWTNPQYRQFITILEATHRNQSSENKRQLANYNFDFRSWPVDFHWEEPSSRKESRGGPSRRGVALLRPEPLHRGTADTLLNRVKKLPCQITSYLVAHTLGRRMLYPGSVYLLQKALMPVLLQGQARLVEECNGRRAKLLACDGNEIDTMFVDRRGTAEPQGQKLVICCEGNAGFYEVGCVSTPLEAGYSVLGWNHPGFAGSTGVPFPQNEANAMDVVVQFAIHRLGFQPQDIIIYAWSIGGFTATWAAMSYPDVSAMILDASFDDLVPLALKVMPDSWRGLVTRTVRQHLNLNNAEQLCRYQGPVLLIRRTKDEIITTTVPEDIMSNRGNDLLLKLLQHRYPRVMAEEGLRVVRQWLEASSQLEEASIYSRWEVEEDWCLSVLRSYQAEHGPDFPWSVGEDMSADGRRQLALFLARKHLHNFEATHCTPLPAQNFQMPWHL

ABHD16A−/− macrophages = assay: Lyso-PS and cytokines of ABHD16A−/− macrophages; type: cell-based, mouse; conditions: basal or LPS stimulation; 1 μM, 4 h
Description: Concentration of secreted lyso-PS (a) and cytokines IL-6 (b) and TNF-α (c) from thioglycollate-elicited peritoneal mouse macrophages from ABHD16A^−/− mice treated with inhibitor (KC01 or KC02, 1 μM, 4 h) followed by vehicle (PBS) or LPS (5 μg/mL) for 7 h is shown. Data represent mean±s.e.m. for four biological replicates. KC01 and KC02 have no effect on lyso-PS or cytokine secretion. Other secreted and cellular lipids in ABHD16A^−/− macrophages were also unchanged by KC01 or KC02 treatment (data not shown).
Peritoneal macrophages were elicited and harvested from mice according to the standard protocols available from LIPID MAPS (See http://www.lipidmaps.org/protocols/PP0000001400.pdf and http://www.lipidmaps.org/protocols/PP0000001500.pdf). After removal of the RBC lysis buffer, the macrophages were re-suspended in RPMI 1640 with 10% FCS and IX penicillin-streptomycin. Cell counts measured using a Bio-Rad TC10 automated cell counter, and equal numbers of cells (2×10^6) were plated in 10 cm tissue culture dishes. Macrophages were allowed to adhere to the plates for 2 h at 37° C. and 5% CO2. […] Macrophages were then stimulated with lipopolysaccharide (5 μg/mL) for 7 hours. Sterile PBS was the vehicle in these studies. Four milliliters of the media was used for measuring secreted metabolites, and 0.5 mL was used for cytokine measurements.

ABHD12 = molecular target: T2, ABHD12 (Homo sapiens, UniProt Q8N2K0); assay: ABPP-SILAC of COLO205 membrane proteome treated with compound 8b; type: biochemical; conditions: 30 min
T2 construct: All ABPP-SILAC experiments were performed using the human COLO205 colon cancer cell line; endogenous in cells; host or cells: COLO205
T2 sequence (Q8N2K0 whole entry): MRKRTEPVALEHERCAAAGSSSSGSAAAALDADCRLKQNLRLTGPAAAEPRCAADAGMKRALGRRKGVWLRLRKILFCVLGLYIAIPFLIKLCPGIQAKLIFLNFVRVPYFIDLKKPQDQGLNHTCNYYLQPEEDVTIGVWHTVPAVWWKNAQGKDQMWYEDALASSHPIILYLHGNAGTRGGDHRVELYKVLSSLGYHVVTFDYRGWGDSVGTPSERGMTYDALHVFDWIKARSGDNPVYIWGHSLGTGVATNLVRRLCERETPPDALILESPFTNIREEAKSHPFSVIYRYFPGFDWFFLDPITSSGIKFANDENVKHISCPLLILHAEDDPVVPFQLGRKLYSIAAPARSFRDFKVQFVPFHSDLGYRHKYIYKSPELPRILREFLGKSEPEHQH

CES2 = molecular target: T3, CES2 (Homo sapiens, UniProt O00748); assay: as above; type: biochemical; conditions: 30 min
T3 construct: All ABPP-SILAC experiments were performed using the human COLO205 colon cancer cell line; endogenous in cells; host or cells: COLO205
T3 sequence (O00748 27-559): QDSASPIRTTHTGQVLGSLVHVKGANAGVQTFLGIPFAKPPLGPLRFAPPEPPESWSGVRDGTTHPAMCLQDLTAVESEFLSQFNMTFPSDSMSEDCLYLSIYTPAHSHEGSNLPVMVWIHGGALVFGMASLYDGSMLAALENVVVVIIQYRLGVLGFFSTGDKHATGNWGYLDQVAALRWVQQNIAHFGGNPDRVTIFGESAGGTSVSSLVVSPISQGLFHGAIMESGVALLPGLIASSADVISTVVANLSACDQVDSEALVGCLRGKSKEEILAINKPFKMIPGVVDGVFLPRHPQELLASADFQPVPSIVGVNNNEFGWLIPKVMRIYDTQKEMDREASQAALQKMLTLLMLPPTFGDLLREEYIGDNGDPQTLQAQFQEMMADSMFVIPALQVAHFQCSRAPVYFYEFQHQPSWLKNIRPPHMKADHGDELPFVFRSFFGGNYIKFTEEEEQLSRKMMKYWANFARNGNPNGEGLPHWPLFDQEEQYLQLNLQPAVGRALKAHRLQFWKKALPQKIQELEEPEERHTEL

FASN = molecular target: T4, FASN (Homo sapiens, UniProt P49327); assay: as above; type: biochemical; conditions: 30 min
T4 construct: All ABPP-SILAC experiments were performed using the human COLO205 colon cancer cell line; endogenous in cells; host or cells: COLO205

ABHD2 = molecular target: T5, ABHD2 (Homo sapiens, UniProt P08910); assay: as above; type: biochemical; conditions: 30 min
T5 construct: All ABPP-SILAC experiments were performed using the human COLO205 colon cancer cell line; endogenous in cells; host or cells: COLO205
T5 sequence (P08910 whole entry): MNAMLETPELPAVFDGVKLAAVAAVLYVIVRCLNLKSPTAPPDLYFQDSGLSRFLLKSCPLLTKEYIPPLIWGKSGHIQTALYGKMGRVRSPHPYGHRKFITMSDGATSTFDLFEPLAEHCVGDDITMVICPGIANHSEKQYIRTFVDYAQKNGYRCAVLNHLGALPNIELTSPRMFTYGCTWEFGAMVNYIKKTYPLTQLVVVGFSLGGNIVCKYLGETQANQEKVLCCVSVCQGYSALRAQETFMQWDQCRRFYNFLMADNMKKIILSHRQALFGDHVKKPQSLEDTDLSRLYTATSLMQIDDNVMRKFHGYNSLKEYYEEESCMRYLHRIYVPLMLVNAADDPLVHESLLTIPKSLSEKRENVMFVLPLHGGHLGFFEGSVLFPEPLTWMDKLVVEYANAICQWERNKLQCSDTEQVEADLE

ABHD16A [2] = molecular target: T1, ABHD16A; assay: as above; type: biochemical; parameters: All ABPP-SILAC experiments were performed using the human COLO205 colon cancer cell line; endogenous in cells; host or cells: COLO205; conditions: 30 min
[3] = system: serine hydrolase targets from mouse brain and COLO205 membrane proteomes; assay: Competitive gel-based ABPP of β-lactone probe set; type: biochemical; conditions: 25 μM, 30 min, 37° C., then FP-rhodamine
Description: Competitive gel-based ABPP were performed as described previously with slight modifications. See Adibekian et al. Nat. Chem. Biol. (2011) 7, 469. […] The reactions were quenched by adding 40 μL of 4×SDS-PAGE loading buffer for reducing gels, followed by boiling for 2 minutes. All samples were visualized in-gel using an FMBio II Multiview flatbed fluorescence scanner (Hitachi). The fluorescence from rhodamine is presented in gray scale.

ABHD3 = molecular target: T6, ABHD3 (Homo sapiens, UniProt Q8WU67); assay: ABPP-SILAC of COLO205 membrane proteome treated with compound 8b; type: biochemical; conditions: 30 min
T6 construct: All ABPP-SILAC experiments were performed using the human COLO205 colon cancer cell line; endogenous in cells; host or cells: COLO205
T6 sequence (Q8WU67 whole entry): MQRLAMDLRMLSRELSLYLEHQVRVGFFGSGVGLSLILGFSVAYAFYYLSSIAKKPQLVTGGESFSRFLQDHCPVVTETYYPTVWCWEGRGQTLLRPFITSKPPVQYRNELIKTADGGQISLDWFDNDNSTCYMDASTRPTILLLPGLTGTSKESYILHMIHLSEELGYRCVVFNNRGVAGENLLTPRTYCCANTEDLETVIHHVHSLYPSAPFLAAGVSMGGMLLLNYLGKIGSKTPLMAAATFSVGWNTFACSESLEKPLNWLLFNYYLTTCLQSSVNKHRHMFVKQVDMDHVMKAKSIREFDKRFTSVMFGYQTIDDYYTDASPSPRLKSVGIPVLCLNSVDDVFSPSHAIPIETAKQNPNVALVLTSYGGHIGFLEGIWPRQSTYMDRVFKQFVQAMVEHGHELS

PNPLA4 = molecular target: T7, PNPLA4 (Homo sapiens, UniProt P41247); assay: as above; type: biochemical; conditions: 30 min
T7 construct: All ABPP-SILAC experiments were performed using the human COLO205 colon cancer cell line; endogenous in cells; host or cells: COLO205
T7 sequence (P41247 whole entry): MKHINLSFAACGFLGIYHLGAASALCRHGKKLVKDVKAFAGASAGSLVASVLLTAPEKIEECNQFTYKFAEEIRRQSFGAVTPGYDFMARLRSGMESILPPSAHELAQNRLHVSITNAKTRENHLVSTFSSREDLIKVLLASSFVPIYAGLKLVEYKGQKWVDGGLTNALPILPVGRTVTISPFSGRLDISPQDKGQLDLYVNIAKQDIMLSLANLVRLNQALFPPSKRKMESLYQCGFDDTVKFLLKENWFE

FAAH = molecular target: T8, FAAH (Homo sapiens, UniProt O00519); assay: as above; type: biochemical; conditions: 30 min
T8 construct: All ABPP-SILAC experiments were performed using the human COLO205 colon cancer cell line; endogenous in cells; host or cells: COLO205
T8 sequence (O00519 whole entry): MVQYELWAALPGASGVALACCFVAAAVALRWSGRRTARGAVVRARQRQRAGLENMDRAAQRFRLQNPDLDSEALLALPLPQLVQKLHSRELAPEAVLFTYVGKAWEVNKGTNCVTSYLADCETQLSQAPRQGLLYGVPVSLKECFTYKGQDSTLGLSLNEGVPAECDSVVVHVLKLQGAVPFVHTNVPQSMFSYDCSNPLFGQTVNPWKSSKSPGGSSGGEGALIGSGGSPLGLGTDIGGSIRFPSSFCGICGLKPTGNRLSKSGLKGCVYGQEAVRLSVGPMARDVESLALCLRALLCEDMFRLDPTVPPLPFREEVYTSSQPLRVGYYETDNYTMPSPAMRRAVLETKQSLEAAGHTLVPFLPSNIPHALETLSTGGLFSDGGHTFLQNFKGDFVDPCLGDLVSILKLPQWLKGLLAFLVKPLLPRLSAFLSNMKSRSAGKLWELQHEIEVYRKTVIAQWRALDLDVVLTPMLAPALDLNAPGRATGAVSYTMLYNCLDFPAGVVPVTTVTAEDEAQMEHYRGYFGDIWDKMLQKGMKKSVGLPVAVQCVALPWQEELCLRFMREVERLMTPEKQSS

ABHD16A [4] = molecular target: T1, ABHD16A; assay: PS substrate assay, human ABHD16A-transfected HEK293T membrane proteome; type: biochemical; parameters: transiently transfected with 12 μg of the full-length cDNA of human ABHD16A (Open Biosystems Catalog # MHS6278-202758315); host or cells: HEK293T, transient, pCMV-SPORT6; conditions: 20 μM, 30 min
Description: HEK293T cells were grown to 40% confluence in a 15 cm dish in 25 mL of Dulbecco's modified Eagle medium (DMEM) supplemented with L-glutamine and 10% (vol/vol) FCS at 37° C. and 5% CO2 (vol/vol). The cells were transiently transfected with 12 μg of the full-length cDNA of human ABHD16A (Open Biosystems Catalog # MHS6278-202758315) or murine ABHD16A (Open Biosystems Catalog # MMM1013-202760516) in pCMV-SPORT6 vector using 40 μg polyethyleneimine “MAX” (MW 40,000) (PEI) (Polysciences Inc. Catalog #24765) as the transfection reagent as per manufacturer's instructions. As a “mock” control, an empty vector was transiently transfected. […] Protein concentration was measured using the Bio-Rad DC Protein Assay Kit as per manufacturer's protocol, and ABHD16A expression was confirmed using gel-based ABPP.
All the lipid species used in the lipid substrate hydrolysis assays were purchased from Avanti Polar Lipids Inc unless mentioned otherwise. […] All the data was collected and analyzed using the Agilent MassHunter Workstation software version B.04 using the Data Acquisition and Quantitative Analysis programs respectively. Measuring the area under the peak, and normalizing it to the internal standard quantified the product release for the lipid substrate hydrolysis assays. […] Some products from the substrate hydrolysis assays were detected in positive ion mode for qualitative identification. […]

mouse ABHD16A = molecular target: T9, mouse ABHD16A (Mus musculus, UniProt Q9Z1Q2); assay: PS substrate assay, mouse ABHD16A-transfected HEK293T proteome; type: biochemical; conditions: 20 μM, 30 min, 37° C.
T9 construct: full-length cDNA of human ABHD16A (Open Biosystems Catalog # MHS6278-202758315) or murine ABHD16A (Open Biosystems Catalog # MMM1013-202760516); host or cells: HEK293T, transient, pCMV-SPORT6
T9 sequence (Q9Z1Q2 1-558): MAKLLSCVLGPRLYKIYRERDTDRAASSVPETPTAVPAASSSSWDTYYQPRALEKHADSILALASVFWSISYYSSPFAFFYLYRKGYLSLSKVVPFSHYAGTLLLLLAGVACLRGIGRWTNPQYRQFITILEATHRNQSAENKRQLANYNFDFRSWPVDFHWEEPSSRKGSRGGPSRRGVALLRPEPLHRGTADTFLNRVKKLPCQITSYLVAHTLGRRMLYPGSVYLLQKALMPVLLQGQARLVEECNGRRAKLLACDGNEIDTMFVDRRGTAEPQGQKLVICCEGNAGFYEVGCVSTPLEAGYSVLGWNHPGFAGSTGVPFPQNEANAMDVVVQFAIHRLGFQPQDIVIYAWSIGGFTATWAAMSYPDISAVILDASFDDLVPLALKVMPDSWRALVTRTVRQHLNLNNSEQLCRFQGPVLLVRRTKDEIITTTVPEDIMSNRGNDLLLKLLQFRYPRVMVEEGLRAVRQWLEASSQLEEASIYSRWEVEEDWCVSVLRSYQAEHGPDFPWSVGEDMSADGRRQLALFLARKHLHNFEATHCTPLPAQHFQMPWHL

[5] = molecular target: T10, ABHD16A (WT and S355A mutant) (Homo sapiens, UniProt O95870); assay: Activity-dependent labeling of ABHD16A by WHP01 in transfected HEK293T lysates; type: biochemical; conditions: transfected HEK293T cell lysates
T10 construct: All full-length cDNA constructs coding for serine hydrolases ABHD16A, and ABHD12 were purchased from Open Biosystems; FLAG; expressed in transfected cells; host or cells: HEK293T
T10 sequence (O95870 whole entry S355A): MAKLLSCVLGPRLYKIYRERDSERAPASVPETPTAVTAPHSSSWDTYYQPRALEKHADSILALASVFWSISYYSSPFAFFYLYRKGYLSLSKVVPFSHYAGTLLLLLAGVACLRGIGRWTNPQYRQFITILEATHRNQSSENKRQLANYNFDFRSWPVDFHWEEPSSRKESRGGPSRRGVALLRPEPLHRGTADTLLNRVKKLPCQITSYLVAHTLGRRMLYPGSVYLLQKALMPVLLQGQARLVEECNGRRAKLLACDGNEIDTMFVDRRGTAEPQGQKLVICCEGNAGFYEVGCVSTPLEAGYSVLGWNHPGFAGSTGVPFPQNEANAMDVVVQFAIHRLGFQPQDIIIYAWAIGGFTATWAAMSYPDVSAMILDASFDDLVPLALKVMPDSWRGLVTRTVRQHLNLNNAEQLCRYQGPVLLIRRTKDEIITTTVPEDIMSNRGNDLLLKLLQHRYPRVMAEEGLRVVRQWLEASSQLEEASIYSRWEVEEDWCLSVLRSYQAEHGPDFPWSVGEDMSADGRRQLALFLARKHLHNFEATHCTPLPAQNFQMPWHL

inhibition at 1 µM (ABHD16A [1]): < 30%
Compound: NC(=O)CCCCC=C1C(=O)OC1CCc1ccccc1 (mixture of isomers) [KC02, (E/Z)-6-(2-Oxo-4-(2-phenethyl)oxetan-3-ylidene)hexanamide]
cellular or secreted lyso-PS, other lipids, secreted IL-6 and TNF-α (ABHD16A−/− macrophages): No changes

inhibition at 25 µM (ABHD12): > 90%
inhibition at 25 µM (CES2): > 90%
inhibition at 25 µM (FASN): 70 to 90%
inhibition at 25 µM (ABHD2): > 90%
inhibition at 25 µM (ABHD16A [2]): > 90%
reactivity / inhibition of serine hydrolase activities [3]: broadest reactivity
inhibition at 25 µM (ABHD3): 70 to 90%
inhibition at 25 µM (PNPLA4): > 90%
inhibition at 25 µM (FAAH): > 90%
Compound: CCCCCCCCCCCCC[C@@H]1OC(=O)[C@H]1Cc1ccccc1 (relative stereo) [Compound 8b, (trans)-3-benzyl-4-tridecyloxetan-2-one]

Compound: CCCCCCCCCCC[C@@H](C[C@@H]1OC(=O)[C@H]1CCCCCC)OC(=O)[C@H](CC(C)C)NC=O [THL, tetrahydrolipstatin, reference compound]
heightened PS lipase activity of ABHD16A-transfected proteome (ABHD16A [4]): blocked
heightened PS lipase activity of ABHD16A-transfected proteome (mouse ABHD16A): blocked

Compound: CCCCCCCCCCCCCC1OC(=O)/C1=C\CCCC(=O)NCCCCCNC(=O)c1ccc(-c2c3ccc(=[N+](C)C)cc-3oc3cc(N(C)C)ccc23)c(C(=O)[O-])c1 (centres unmarked) [WHP01, (Z)-2-(6-(dimethylamino)-3-(dimethyliminio)-3H-xanthen-9-yl)-5-((5-(5-(2-oxo-4-tridecyloxetan-3-ylidene)pentanamido)pentyl)carbamoyl)benzoate]
labeling of ABHD16A [5]: labeled WT-ABHD16A but not the catalytic serine S355A mutant
